Results taken from article PMC12095047, “Transport of phenoxyacetic acid herbicides by PIN-FORMED auxin transporters” (Nature Plants, 2025).
Values joined by “and” are separate entries in the source; they are usually repeats but may differ in a detail not shown here. Equal entries are not always repeated. Where two headings read alike, the source gives them in different places.

Columns and labels:
[1] = cited from earlier work
[2] = system: A. thaliana stem segments of wild type; test: Arabidopsis stem transport assay, Col-0 wild type; type: in vivo, Arabidopsis thaliana; settings: for CPM: WT;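 for CPM: Segments numbered apical to basal with Segment 1 nearest the apical end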
Protocol: Arabidopsis stem transport assays were carried out as described. Briefly, 2 cm stem sections were cut above the rosette of 5-week-old plants and placed in inverted orientation into auxin transport buffer containing 500 pM IAA, 1% (wt/vol) sucrose, 5 mM 2-(N-morpholino)ethanesulfonic acid, pH 5.5 with or without 100 μM NPA. After 2 h the stems were transferred into auxin transport buffer containing 417 nM [^3H]-IAA or [^3H]-2,4-D as a substrate in the absence and presence of NPA. After 2 h, 5 mm segments were dissected, and the substrate was quantified using a liquid scintillation counter.

[3] = target: T1, PIN8 (Arabidopsis thaliana, UniProt Q9LFP6); test: SSM electrophysiology, KD by inhibition of the NPA binding current; settings: for inhibition at 250 µM: read-out: Rel. Inhibition of NPA peak currents, 250 µM substrate
T1 construct: made in house
T1 sequence (Q9LFP6 1-367): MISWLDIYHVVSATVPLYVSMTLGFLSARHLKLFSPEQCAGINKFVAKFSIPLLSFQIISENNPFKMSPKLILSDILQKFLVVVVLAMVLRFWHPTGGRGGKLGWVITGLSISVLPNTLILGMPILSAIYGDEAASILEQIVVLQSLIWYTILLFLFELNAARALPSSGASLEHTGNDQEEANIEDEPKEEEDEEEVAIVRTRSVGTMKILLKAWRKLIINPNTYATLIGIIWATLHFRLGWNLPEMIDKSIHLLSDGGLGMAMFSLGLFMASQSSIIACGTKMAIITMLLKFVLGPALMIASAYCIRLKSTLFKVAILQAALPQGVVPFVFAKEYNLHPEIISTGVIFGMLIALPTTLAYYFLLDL
Protocol: SSM, using a SURFE2R N1 from Nanion Technologies, was conducted as described. In brief, soy polar lipid mix (38% phosphatidyl choline, 30% phosphatidyl ethanolamine, 18% phosphatidyl inositol, 7% phosphatidic acid and 7% other soy lipids) and 1-palmitoyl-2-oleoyl-sn-glycero-3-phosphocholin were purchased from Avanti. Liposomes were prepared in Ringer solution without Ca^2+ (115 mM NaCl, 2.5 mM KCl, 1 mM NaHCO3, 10 mM HEPES pH7.4, 1 mM MgCl2) and homogenized using a Lipsofast (Avestin) with a […]. Triton X-100 was added to the liposomes to a final concentration of 1% (v/v). Protein was added to liposomes to a calculated lipid-to-protein ratio (LPR) of 10 unless stated otherwise. The detergent was removed using 400 mg ml^−1 Bio Beads (BioRad) overnight at 4 °C in a rotary shaker. Proteoliposomes were frozen in liquid nitrogen and kept at −80 °C until use. Proteoliposomes were diluted 1:5 in Ringer solution without Ca^2+, sonicated five times and then applied to the sensors by centrifugation (30 min, 3,000 g, 4 °C). Non-activating buffer was Ringer solution without Ca^2+ as described unless specified otherwise, and activating buffer contained the substrate of interest. In most instances we used a single-solution exchange experiment. In this case proteoliposomes, immobilized on the supported membrane, are kept in non-activating buffer as specified. At the beginning of the experiment the non-activating buffer is replaced with fresh identical non-activating buffer, and after 1 s, activating buffer (same buffer containing substrate) is added. After another second, the buffer is replaced with non-activating buffer again. Current response is recorded throughout the entire 3 s. For competition or inhibition, the respective compound was present in non-activating and activating solutions. Each experiment was performed on at least two individual sensors. On each sensor each measurement consists of three technical replicates where the mean is calculated. KD values were determined as described previously. Briefly, the binding current induced by 100 µM NPA was recorded in the presence of different concentrations of the substrate under investigation ranging between 0 µM and 1,000 µM present in the activating solution and the non-activating solution (Extended Data Fig. 5b). […] The maximum peak current was then plotted as a function of the concentration of the substrate under investigation and plotted against the degree of inhibition and fitted with a one-site binding model using GraphPad Prism V10.4.1 The half maximal concentration corresponds to the KD of the substrate under investigation.

[4] = target: T2, PIN8 S55A (Arabidopsis thaliana, UniProt Q9LFP6, S55A); type: biochemical; settings: for Imax / EC50: PIN8 S55A, Michaelis–Menten fit; for EC50: read-out: EC50 of peak current response; for Peak current: S55A, individual sensors
T2 construct: made in house
T2 sequence (Q9LFP6 whole entry S55A): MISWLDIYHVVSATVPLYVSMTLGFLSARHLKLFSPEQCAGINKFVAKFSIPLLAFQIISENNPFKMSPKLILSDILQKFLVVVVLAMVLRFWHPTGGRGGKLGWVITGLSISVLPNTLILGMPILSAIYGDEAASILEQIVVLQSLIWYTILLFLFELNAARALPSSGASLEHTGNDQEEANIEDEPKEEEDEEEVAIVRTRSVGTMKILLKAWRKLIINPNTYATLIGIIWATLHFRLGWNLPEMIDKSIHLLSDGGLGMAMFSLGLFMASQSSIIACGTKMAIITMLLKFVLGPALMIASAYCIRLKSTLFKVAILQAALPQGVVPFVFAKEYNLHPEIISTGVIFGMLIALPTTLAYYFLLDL

[5] = target: T3, PIN8 S266A (Arabidopsis thaliana, UniProt Q9LFP6, S266A); type: biochemical; settings: for Imax / EC50: PIN8 S266A, Michaelis–Menten fit; for EC50: read-out: EC50 of peak current response; for Peak current: S266A, individual sensors
T3 construct: made in house
T3 sequence (Q9LFP6 whole entry S266A): as the sequence (Q9LFP6 whole entry S55A) above, with A55S, S266A counted along it

[6] = Peak current, sheet F2A (Fig. 2a, KD of substrate binding), individual sensors
[7] = read-out: Rel. Inhibition of NPA peak currents, 50 µM substrate, 100 µM NPA, individual sensors
[8] = read-out: Rel. Inhibition of NPA peak currents, 100 µM substrate, 100 µM NPA, individual sensors
[9] = read-out: Rel. Inhibition of NPA peak currents, 500 µM substrate, 100 µM NPA, individual sensors
[10] = read-out: Rel. Inhibition of NPA peak currents, 1000 µM substrate, 100 µM NPA, individual sensors

| Structure (SMILES) | acid dissociation constant pKa [1] | Kd [3, 6] | inhibition at 50 µM [3, 7] [%] | inhibition at 100 µM [3, 8] [%] | inhibition at 250 µM ([3]; 100 µM NPA, individual sensors) [%] | inhibition at 500 µM [3, 9] [%] | inhibition at 1000 µM [3, 10] [%] | Imax [4] [nA] | EC50 [4] [µM] | Peak current ([4]; 5 µM substrate) | Peak current ([4]; 20 µM substrate) | Peak current ([4]; 50 µM substrate) | Peak current ([4]; 100 µM substrate) | Peak current ([4]; 500 µM substrate) | Peak current ([4]; 1000 µM substrate) | Peak current ([4]; 2000 µM substrate) | Imax [5] [nA] | EC50 [5] [µM] | other results |
| --- | --- | --- | --- | --- | --- | --- | --- | --- | --- | --- | --- | --- | --- | --- | --- | --- | --- | --- | --- |
| O=C(O)COc1ccc(Cl)cc1Cl [2,4-D, 2,4-dichlorophenoxyacetic acid] | 2.73 | 64.4 µM and 50.6 µM and 62.3 µM | 46.2 | 65.6 | 83.2 | 91.1 | 95.2 | 6 ± 0.6 | 95 ± 36 | 0.5771 nA and 0.4543 nA and 0.3145 nA and 0.4609 nA | 1.612 nA and 1.263 nA and 1.114 nA and 1.2922 nA | 2.6274 nA and 2.193 nA and 2.012 nA and 0.000174 nA | 3.62 nA and 3.055 nA and 2.8112 nA and 3.289 nA | 5.907 nA and 5.083 nA and 4.589 nA and 5.296 nA | 6.235 nA and 5.542 nA and 4.855 nA and 5.533 nA | 6.017 nA and 5.654 nA and 4.774 nA and 5.542 nA | 12 ± 0.7 | 774 ± 70 | CPM ([2]; sheet EDF2I, + NPA, Segment 2, single stems): 33 CPM and 25 CPM and 26 CPM and 39 CPM; CPM ([2]; sheet EDF2I, + NPA, Segment 3, single stems): 20 CPM and 21 CPM and 33 CPM and 30 CPM; CPM ([2]; sheet EDF2I, - NPA, Segment 1, single stems): 76 CPM and 115 CPM and 77 CPM and 107 CPM; CPM ([2]; sheet EDF2I, - NPA, Segment 2, single stems): 35 CPM and 37 CPM and 34 CPM and 29 CPM and 30 CPM; CPM ([2]; sheet EDF2I, - NPA, Segment 3, single stems): 29 CPM and 37 CPM and 35 CPM and 26 CPM and 28 CPM; transport in stem segments, lower than IAA transport ([2]; wild-type plants): about 20 fold; Kd ([3]; inhibition of peak current elicited by 100 µM NPA, read-out: KD of substrate binding by PIN8): 59 ± 7 µM; inhibition at 20 µM ([3]; read-out: Rel. Inhibition of NPA peak currents, 20 µM substrate, 100 µM NPA, individual sensors): 22.5% |
| O=C(O)COc1ccc(Cl)cc1 [4-CPA, 4-chlorophenoxyacetic acid] |  | 319 µM and 330 µM and 262 µM |  |  |  |  |  | 11 ± 1 | 328 ± 15 | 0.2701 nA and 0.2897 nA and 0.3406 nA | 0.9459 nA and 0.8941 nA and 1.017 nA | 1.817 nA and 1.664 nA and 1.992 nA | 2.935 nA and 2.612 nA and 3.1231 nA | 6.5808 nA and 5.777 nA and 6.881 nA | 8.474 nA and 7.36 nA and 8.719 nA | 10.4298 nA and 8.998 nA and 10.8546 nA | 7 ± 2 | 2100 ± 290 | inhibition at 5 µM ([3]; 5 µM substrate, 100 µM NPA, individual sensors, read-out: Rel. Inhibition of NPA peak currents): 3.03%; inhibition at 20 µM ([3]; 20 µM substrate, 100 µM NPA, individual sensors, read-out: Rel. Inhibition of NPA peak currents): 9.7%; inhibition at 50 µM ([3]; 50 µM substrate, 100 µM NPA, individual sensors, read-out: Rel. Inhibition of NPA peak currents): 16%; inhibition at 100 µM ([3]; 100 µM substrate, 100 µM NPA, individual sensors, read-out: Rel. Inhibition of NPA peak currents): 24.7%; inhibition at 500 µM ([3]; 500 µM substrate, 100 µM NPA, individual sensors, read-out: Rel. Inhibition of NPA peak currents): 58.6%; inhibition at 1000 µM ([3]; 1000 µM substrate, 100 µM NPA, individual sensors, read-out: Rel. Inhibition of NPA peak currents): 73.5%; inhibition at 2000 µM ([3]; 2000 µM substrate, 100 µM NPA, individual sensors, read-out: Rel. Inhibition of NPA peak currents): 82.1%; inhibition at 5000 µM ([3]; 5000 µM substrate, 100 µM NPA, individual sensors, read-out: Rel. Inhibition of NPA peak currents): 96.6%; lower binding affinity compared to IAA ([3]; KD compared to IAA): ~ 8 fold |
| O=C(O)Cc1c[nH]c2ccccc12 [IAA, indole-3-acetic acid] | 4.7 |  | 57 | 77.9 | 84.7 | 94.3 | 84.7 | 6 ± 1 | 213 ± 58 | 0.3417 nA and 0.3232 nA and 0.2318 nA and 0.3509 nA | 1.04 nA and 0.8246 nA and 0.4664 nA and 0.4596 nA | 1.937 nA and 1.54 nA and 0.9207 nA and 0.8323 nA | 2.888 nA and 2.325 nA and 1.514 nA and 1.385 nA | 5.317 nA and 4.4508 nA and 3.048 nA and 3.044 nA | 6.258 nA and 5.302 nA and 3.739 nA and 3.804 nA | 7.104 nA and 6.138 nA and 4.476 nA and 4.5392 nA | 4 ± 0.6 | 578 ± 183 | CPM ([2]; sheet EDF2H, + NPA, Segment 1, single stems): 342 CPM and 190 CPM and 344 CPM and 366 CPM and 333 CPM; CPM ([2]; sheet EDF2H, + NPA, Segment 2, single stems): 98 CPM and 93 CPM and 124 CPM and 114 CPM; CPM ([2]; sheet EDF2H, + NPA, Segment 3, single stems): 125 CPM and 94 CPM and 137 CPM and 146 CPM and 104 CPM; CPM ([2]; sheet EDF2H, - NPA, Segment 3, single stems): 181 CPM and 109 CPM and 111 CPM and 125 CPM and 156 CPM; inhibition at 5 µM ([3]; read-out: Rel. Inhibition of NPA peak currents, 5 µM substrate, 100 µM NPA, individual sensors): 14.1%; Kd ([3]; sheet F2A (Fig. 2a, KD of substrate binding), individual sensors, read-out: Peak current): 38.8 µM and 54 µM and 24.3 µM; Peak current ([5]; 5 µM substrate): 0.2201 nA and 0.07526 nA and 0.1062 nA; Peak current ([5]; 20 µM substrate): 0.3015 nA and 0.4448 nA and 0.2134 nA; Peak current ([5]; 50 µM substrate): 0.4871 nA and 0.8571 nA and 0.3384 nA |
